Source: ChEMBL document CHEMBL5154705, “Discovery and mechanistic study of thiazole-4-acylsulfonamide derivatives as potent and orally active ChemR23 inhibitors with a long-acting effect in cynomolgus monkeys” (Bioorg Med Chem, 2022)

Tests used:
[1] = Cmax in cynomolgus monkey at 0.3 to 1 mg/kg, po; type: ADME, organism-based, Macaca fascicularis; parameters: route po; conditions: in vivo, dose 0.3-1 mg/kg
[2] = Drug concentration in cynomolgus monkey plasma at 1 mg/kg, po after 8 hrs; type: ADME, organism-based, Macaca fascicularis
[3] = target: T1, Chemerin-like receptor 1 (Homo sapiens) (UniProt Q99788); conditions: CAL1
T1 sequence (whole entry): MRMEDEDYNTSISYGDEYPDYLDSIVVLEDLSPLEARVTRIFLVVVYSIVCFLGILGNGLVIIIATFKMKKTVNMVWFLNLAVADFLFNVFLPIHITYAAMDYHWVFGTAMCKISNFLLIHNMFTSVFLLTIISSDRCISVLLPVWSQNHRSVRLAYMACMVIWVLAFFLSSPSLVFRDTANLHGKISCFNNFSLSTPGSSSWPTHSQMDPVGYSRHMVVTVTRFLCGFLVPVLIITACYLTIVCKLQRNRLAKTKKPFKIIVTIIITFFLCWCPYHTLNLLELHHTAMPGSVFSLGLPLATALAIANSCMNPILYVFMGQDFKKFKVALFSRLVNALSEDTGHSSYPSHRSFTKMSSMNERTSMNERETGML

[4] = MRT in cynomolgus monkey at 0.3 to 1 mg/kg, po; type: ADME, organism-based, Macaca fascicularis; conditions: in vivo, dose 0.3-1 mg/kg
[5] = Half life in cynomolgus monkey at 0.3 to 1 mg/kg, po; type: ADME, organism-based, Macaca fascicularis; conditions: in vivo, dose 0.3-1 mg/kg
[6] = Tmax in cynomolgus monkey at 0.3 to 1 mg/kg, po; type: ADME, organism-based, Macaca fascicularis; conditions: in vivo, dose 0.3-1 mg/kg
[7] = AUC(0 to infinity) in cynomolgus monkey at 0.3 to 1 mg/kg, po; type: ADME, organism-based, Macaca fascicularis; parameters: route po; conditions: in vivo, dose 0.3-1 mg/kg
[8] = Drug concentration in cynomolgus monkey plasma at 0.3 mg/kg, po after 8 hrs; type: ADME, organism-based, Macaca fascicularis
[9] = Tmax in cynomolgus monkey at 0.3 mg/kg, po; type: ADME, organism-based, Macaca fascicularis; conditions: in vivo
[10] = AUC(0 to infinity) in cynomolgus monkey at 0.3 mg/kg, po; type: ADME, organism-based, Macaca fascicularis; parameters: time infinity, dose 0.3 mg/kg, route po; conditions: in vivo
[11] = Half life in cynomolgus monkey at 0.3 mg/kg, po; type: ADME, organism-based, Macaca fascicularis; conditions: in vivo
[12] = Cmax in cynomolgus monkey at 0.3 mg/kg, po; type: ADME, organism-based, Macaca fascicularis; parameters: dose 0.3 mg/kg, route po; conditions: in vivo
[13] = MRT in cynomolgus monkey at 0.3 mg/kg, po; type: ADME, organism-based, Macaca fascicularis; conditions: in vivo
[14] = Cmax in cynomolgus monkey at 1 mg/kg, po; type: ADME, organism-based, Macaca fascicularis; parameters: dose 1 mg/kg, route po; conditions: in vivo
[15] = AUC(0 to infinity) in cynomolgus monkey at 1 mg/kg, po; type: ADME, organism-based, Macaca fascicularis; parameters: time infinity, dose 1 mg/kg, route po; conditions: in vivo
Chemerin-like receptor 1 [16] = target: T2, Chemerin-like receptor 1 (Homo sapiens, UniProt Q99788); assay: Inhibition of human ChemR23 expressed in CAL-1 cells assessed as receptor internalization; type: functional, cell-based, CAL1
T2 sequence (Q99788 whole entry): T1 sequence (whole entry)

Chemerin-like receptor 1 [17] = target: T2, Chemerin-like receptor 1; assay: Inhibition of human ChemR23 expressed in CAL-1 cells assessed as reduction in chemerin-induced calcium signaling; type: functional, cell-based, CAL1
[18] = Half life in cynomolgus monkey at 1 mg/kg, po; type: ADME, organism-based, Macaca fascicularis; conditions: in vivo
[19] = Tmax in cynomolgus monkey at 1 mg/kg, po; type: ADME, organism-based, Macaca fascicularis; conditions: in vivo
[20] = MRT in cynomolgus monkey at 1 mg/kg, po; type: ADME, organism-based, Macaca fascicularis; conditions: in vivo

Cc1ccc(-c2nc(=O)o[nH]2)c(-c2ccc([C@@H](C)N(CC3CC3)c3nc(C(=O)NS(=O)(=O)C4CC4)c(C(C)C)s3)cc2)c1
Cmax [1]: 5670 ng/mL | concentration at 8 h [2]: 1140 ng/mL | IC80 [3]: 18 nM | MRT [4]: 5.2 h | half-life [5]: 2.4 h | Tmax [6]: 4 h | AUC(0-inf) [7]: 33800 ng·h/mL

CONC(=O)c1ccc(Cl)cc1-c1ccc([C@@H](C)N(CC2CC2)c2nc(C(=O)NS(=O)(=O)C3CC3)c(C3CC3)s2)cc1
concentration at 8 h [8]: 116 ng/mL | Tmax [9]: 2.7 h | AUC(0-inf) [10]: 3290 ng·h/mL | half-life [11]: 3.3 h | Cmax [12]: 484 ng/mL | MRT [13]: 5.3 h

Cc1sc(N(CC2CC2)[C@H](C)c2ccc(-c3cc(Cl)ccc3-c3nc(=O)o[nH]3)cc2)nc1C(=O)NS(=O)(=O)C1CCCC1
concentration at 8 h [2]: 10 ng/mL | Cmax [14]: 722 ng/mL | IC80 [3]: 66 nM | AUC(0-inf) [15]: 1730 ng·h/mL

COCCc1sc(N(CC2CC2)[C@H](C)c2ccc(-c3cc(C)ccc3-c3nc(=O)o[nH]3)cc2)nc1C(=O)NS(=O)(=O)C1CC1
Cmax [1]: 3530 ng/mL | concentration at 8 h [2]: 274 ng/mL | IC80 [3]: 33 nM | MRT [4]: 4.2 h | half-life [5]: 2.6 h | Tmax [6]: 2.7 h | AUC(0-inf) [7]: 12800 ng·h/mL

C[C@H](c1ccc(-c2cc(Cl)ccc2C(=O)NCCOCCOCCOCCOCCOCCOCCOCCOCCOCCOCCOCCOCCOCCOCCOCCOCCOCCOCCOCOCCOCCOCCOCCN=[N+]=[N-])cc1)N(CC1CC1)c1nc(C(=O)NS(=O)(=O)C2CC2)c(C2CC2)s1
EC50 (Chemerin-like receptor 1 [16]): 380 nM | IC50 (Chemerin-like receptor 1 [17]): 100 nM

Cc1sc(N(CC2CC2)[C@H](C)c2ccc(-c3cc(Cl)ccc3-c3nc(=O)o[nH]3)cc2)nc1C(=O)O
concentration at 8 h [2]: 7.9 ng/mL | Cmax [14]: 646 ng/mL | AUC(0-inf) [15]: 2210 ng·h/mL

Cc1ccc(-c2nc(=O)s[nH]2)c(-c2ccc([C@@H](C)N(CC3CC3)c3nc(C(=O)NS(=O)(=O)C4CC4)c(C4CC4)s3)cc2)c1
concentration at 8 h [2]: 2090 ng/mL | Cmax [14]: 4190 ng/mL | half-life [18]: 3.2 h | Tmax [19]: 4 h | AUC(0-inf) [15]: 39800 ng·h/mL | MRT [20]: 6.5 h

CCNC(=O)CCC(=O)N1Cc2ccccc2-c2nnn(CCOCCOCCOCCOCCOCCOCCNC(=O)c3ccc(Cl)cc3-c3ccc([C@@H](C)N(CC4CC4)c4nc(C(=O)NS(=O)(=O)C5CC5)c(C5CC5)s4)cc3)c2-c2ccccc21
IC50 (Chemerin-like receptor 1 [17]): 9.1 nM

CONC(=O)c1ccc(C)cc1-c1ccc([C@@H](C)N(CC2CC2)c2nc(C(=O)NS(=O)(=O)C3CC3)c(C3CC3)s2)cc1
concentration at 8 h [2]: 1010 ng/mL | Cmax [14]: 3480 ng/mL | IC80 [3]: 38 nM | half-life [18]: 2.9 h | Tmax [19]: 3.3 h | AUC(0-inf) [15]: 24000 ng·h/mL | MRT [20]: 5.9 h

C[C@H](c1ccc(-c2cc(Cl)ccc2C(=O)NCCOCCOCCOCCOCCOCCOCCn2nnc3c2-c2ccccc2N(C(=O)CCNC(=O)CCOCCOCCOCCOCCNC(=O)CCCC[C@@H]2SC[C@@H]4NC(=O)N[C@@H]42)Cc2ccccc2-3)cc1)N(CC1CC1)c1nc(C(=O)NS(=O)(=O)C2CC2)c(C2CC2)s1
IC50 (Chemerin-like receptor 1 [17]): 14 nM

CCS(=O)(=O)NC(=O)c1nc(N(CC2CC2)[C@H](C)c2ccc(-c3cc(Cl)ccc3-c3nc(=O)o[nH]3)cc2)sc1C
concentration at 8 h [2]: 14 ng/mL | Cmax [14]: 716 ng/mL | AUC(0-inf) [15]: 2170 ng·h/mL

CCc1sc(N(CC2CC2)[C@H](C)c2ccc(-c3cc(C)ccc3-c3nc(=O)o[nH]3)cc2)nc1C(=O)NS(=O)(=O)C1CC1
Cmax [1]: 5970 ng/mL | concentration at 8 h [2]: 85.7 ng/mL | IC80 [3]: 63 nM | MRT [4]: 2.9 h | half-life [5]: 3 h | Tmax [6]: 1.7 h | AUC(0-inf) [7]: 10300 ng·h/mL

Cc1ccc(-c2nc(=O)o[nH]2)c(-c2ccc([C@@H](C)N(CC3CC3)c3nc(C(=O)NS(=O)(=O)C4CC4)c(-c4ccsc4)s3)cc2)c1
IC80 [3]: > 330 nM

CCCc1sc(N(CC2CC2)[C@H](C)c2ccc(-c3cc(C)ccc3-c3nc(=O)o[nH]3)cc2)nc1C(=O)NS(=O)(=O)C1CC1
IC80 [3]: 25 nM

Cc1sc(N(CC2CC2)[C@H](C)c2ccc(-c3cc(Cl)ccc3-c3nc(=O)o[nH]3)cc2)nc1C(=O)NS(=O)(=O)C1CC1
concentration at 8 h [2]: 18 ng/mL | Cmax [14]: 1210 ng/mL | AUC(0-inf) [15]: 3740 ng·h/mL

COc1cccc(-c2sc(N(CC3CC3)[C@H](C)c3ccc(-c4cc(C)ccc4-c4nc(=O)o[nH]4)cc3)nc2C(=O)NS(=O)(=O)C2CC2)c1
IC80 [3]: 42 nM

Cc1ccc(-c2nc(=O)o[nH]2)c(-c2ccc([C@@H](C)N(CC3CC3)c3nc(C(=O)NS(=O)(=O)C4CC4)c(-c4ccccc4)s3)cc2)c1
IC80 [3]: > 330 nM
